Experiments:
[1] = tested on: A549 human lung carcinoma xenografts; test: A549 xenograft: tumor volume; format: in vivo, mouse; conditions: 2.5 μM ST-246 in addition to LIVP 5.1.1 or GLV-1h68
[2] = A549 xenograft: average body weight; conditions: 2.5 μM ST-246
[3] = tested on: A549 human lung carcinoma cells; format: cell-based; conditions: 5 μM ST-246

O=C(NN1C(=O)[C@@H]2[C@@H]3C=C[C@@H]([C@H]4C[C@@H]34)[C@@H]2C1=O)c1ccc(C(F)(F)F)cc1 [ST-246]
effect of ST-246 on tumor reduction by virus [1]: decreased the ability of each virus to reduce tumor size | effect of ST-246 on toxicity of virus [2]: reduced toxicity | effect of ST-246 on eradication of A549 cells by LIVP 5.1.1 and GLV-1h68 [3]: reduced the eradication of A549 cells
